Kd data for one compound are collected here from article doi:10.1101/2024.05.22.595443v1 (biorxiv, 2024).

The target of one experiment is PRMT5:MEP50 complex (Homo sapiens, UniProt O14744). As to the kind of experiment: SPR. The format is binding.
The target of the next experiment is EZH2 (Homo sapiens, UniProt Q15910). Nature of the experiment: SPR. The format is binding.
Sequence of EZH2 (Q15910 whole entry): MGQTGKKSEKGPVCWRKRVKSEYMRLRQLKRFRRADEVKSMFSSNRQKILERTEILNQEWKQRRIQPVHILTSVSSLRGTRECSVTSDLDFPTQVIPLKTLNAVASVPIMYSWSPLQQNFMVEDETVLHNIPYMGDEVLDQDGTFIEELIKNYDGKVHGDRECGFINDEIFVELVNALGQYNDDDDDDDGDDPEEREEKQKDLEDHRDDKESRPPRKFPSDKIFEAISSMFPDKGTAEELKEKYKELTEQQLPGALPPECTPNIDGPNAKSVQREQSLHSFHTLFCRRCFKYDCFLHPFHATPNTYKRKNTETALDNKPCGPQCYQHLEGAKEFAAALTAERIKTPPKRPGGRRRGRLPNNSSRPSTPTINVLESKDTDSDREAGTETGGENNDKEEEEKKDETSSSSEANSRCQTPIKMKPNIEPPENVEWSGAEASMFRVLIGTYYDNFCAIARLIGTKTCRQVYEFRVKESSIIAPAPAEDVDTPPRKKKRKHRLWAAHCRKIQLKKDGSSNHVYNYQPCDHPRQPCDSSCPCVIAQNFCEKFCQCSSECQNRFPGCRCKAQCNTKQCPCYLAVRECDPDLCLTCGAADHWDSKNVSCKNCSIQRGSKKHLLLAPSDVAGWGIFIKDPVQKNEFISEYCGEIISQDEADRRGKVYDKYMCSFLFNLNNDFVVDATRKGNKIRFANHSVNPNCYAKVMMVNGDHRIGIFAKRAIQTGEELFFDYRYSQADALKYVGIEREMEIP

Sequence of PRMT5:MEP50 complex (O14744 2-637): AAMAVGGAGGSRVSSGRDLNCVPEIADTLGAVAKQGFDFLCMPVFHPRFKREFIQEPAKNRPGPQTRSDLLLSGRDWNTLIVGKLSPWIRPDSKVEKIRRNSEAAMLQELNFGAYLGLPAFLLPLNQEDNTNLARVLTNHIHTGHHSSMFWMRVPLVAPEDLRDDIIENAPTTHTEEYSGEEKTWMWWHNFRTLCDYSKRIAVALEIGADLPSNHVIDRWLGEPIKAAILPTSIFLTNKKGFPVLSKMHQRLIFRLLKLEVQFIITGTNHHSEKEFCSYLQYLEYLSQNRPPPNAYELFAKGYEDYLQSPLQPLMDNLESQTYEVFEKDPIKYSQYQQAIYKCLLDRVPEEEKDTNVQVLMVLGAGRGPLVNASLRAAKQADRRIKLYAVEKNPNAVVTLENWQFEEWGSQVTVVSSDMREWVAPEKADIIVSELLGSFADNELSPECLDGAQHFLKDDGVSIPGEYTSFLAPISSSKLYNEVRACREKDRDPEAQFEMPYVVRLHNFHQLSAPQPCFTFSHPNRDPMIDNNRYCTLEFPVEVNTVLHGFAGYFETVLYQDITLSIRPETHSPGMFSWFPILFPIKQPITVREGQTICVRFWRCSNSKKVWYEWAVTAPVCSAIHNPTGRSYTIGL
Sequence of PRMT5:MEP50 complex (Q9BQA1 whole entry partner): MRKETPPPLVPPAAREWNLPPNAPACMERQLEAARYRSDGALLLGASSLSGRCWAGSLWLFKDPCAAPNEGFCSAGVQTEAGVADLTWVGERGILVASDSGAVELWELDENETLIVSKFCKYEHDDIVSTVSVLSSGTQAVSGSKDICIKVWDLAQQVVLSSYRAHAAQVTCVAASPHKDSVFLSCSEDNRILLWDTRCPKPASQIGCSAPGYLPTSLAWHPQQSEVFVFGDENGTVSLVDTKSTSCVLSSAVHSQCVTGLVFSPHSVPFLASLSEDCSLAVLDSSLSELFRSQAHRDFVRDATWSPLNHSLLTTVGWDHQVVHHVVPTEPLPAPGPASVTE

With `O=c1oc2c(O)c(O)cc3c(=O)oc4c(O)c(O)cc1c4c23` [Ellagic acid], the figures for the dissociation constant Kd on PRMT5:MEP50 complex and at EZH2 were 65.4 µM and 3.28 µM, respectively.
